From PubChem BioAssay (NCI)
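Following 48 hours of exposure in 96-well plates, responses at five concentrations were used to interpolate endpoints linearly. GI50: concentration for 50% inhibition of growth. TGI: total growth inhibition.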

Legend:
Experiment in all cases: growth of human tumour cells (NCI), 48 h
[1] = test system: NCI-H23 lung
[2] = test system: HL-60(TB) leukemia
[3] = test system: 786-0 renal
[4] = test system: OVCAR-3 ovarian
[5] = test system: COLO 205 colon
[6] = test system: UO-31 renal
[7] = test system: MDA-N
[8] = test system: CAKI-1 renal

Compound	TGI [1] [µM]	TGI [2] [µM]	TGI [3] [µM]	TGI [4] [µM]	TGI [5] [µM]	TGI [6] [µM]	TGI [7] [µM]	TGI [8] [µM]	GI50 [1] [µM]	GI50 [4] [µM]	GI50 [5] [µM]	GI50 [8] [µM]
COC(=O)C1(Cc2ccc3c(c2)CCC3)Cc2ccc3c(c2C1=O)CCC3 (stereo not drawn)	> 71.6	8.83	> 91.3	52.8	9.16	> 100	5.78	> 100	–	–	–	–
CCOC(=O)/C(C(N)=O)=C(\O)C(=O)/C=C(\O)c1ccc(Cl)cc1	33.6	–	32.2	66.4	32.6	33.4	38.5	64	–	–	–	–
O=C(N/N=C\c1ccc(Cl)cc1)Nc1ccc2ccccc2c1	> 100	–	38.4	> 100	> 100	> 100	> 100	> 100	–	–	–	–
O=C1OC(C(O)CO)C(C(O)CO)OC1=O (stereo not drawn)	> 10	> 10	> 10	> 10	> 10	> 10	–	> 10	–	–	–	–
Nc1cc(OCC2CCCCC2)nc(N)n1	> 100	> 100	> 100	> 100	> 100	> 100	> 100	> 100	–	–	–	–
O=C1CCCC2=C1CC1=C(CCCC1=O)N2c1ccc(Cl)cc1	> 100	> 100	> 100	> 100	> 100	> 100	> 100	> 100	–	–	–	–
O=C1c2c(c3c4cc(F)ccc4oc3c3[nH]c4ccccc4c23)C(=O)N1O	8.45	–	–	7.96	> 100	–	–	9.35	1.65	2.53	4.15	2.09
CCOP(=O)(OCC)C(c1ccc(F)cc1)N(C(=O)NC(F)(F)F)c1ccc(F)cc1 (stereo not drawn)	> 100	> 100	> 100	> 100	> 100	> 100	> 100	> 100	–	–	–	–
O=C(O)c1ccc2c(O)c(O)ccc2c1	50.5	–	43.9	34.5	> 64	41.4	38.5	48.2	–	–	–	–
O=c1c(NCc2ccccc2)c(C2(c3ccccc3F)SCCCS2)c1=O	> 100	> 100	> 100	> 100	> 100	> 100	> 100	> 100	–	–	–	–
CN1C/C(=C\c2cccs2)C2=NN(c3ccccc3)C(c3cccs3)C2C1 (stereo not drawn)	> 100	4.45	> 44.7	> 21.8	> 100	> 100	3.99	> 100	–	–	–	–
COc1cc(/C=C2\C(=O)N(c3cccc(NC(C)=O)c3)C(c3ccccc3)S2(=O)=O)cc(OC)c1OC (stereo not drawn)	> 100	44.5	> 100	> 100	> 100	> 100	> 100	> 100	–	–	–	–
N=C1OC(CN2CCN(c3ccccc3)CC2)CN1C(=O)Nc1ccccc1 (stereo not drawn)	> 100	> 100	> 100	–	> 100	> 100	> 100	> 100	–	–	–	–
COc1ccc2c(c1)/C(=C\c1c(Cl)nc3n1CCS3)C(=O)N2	72.2	17.2	45.9	17.8	10.9	> 100	6.54	> 100	–	–	–	–
COP(=O)(OC)C(N)Cc1c[nH]c2ccccc12 (stereo not drawn)	> 100	–	–	> 100	> 100	> 100	> 100	> 100	–	–	–	–
Cc1nc2c(Cl)cc(Cl)cc2c2c1CCO2	> 100	> 100	> 100	–	> 100	> 100	> 100	> 100	–	–	–	–
O=C(Cn1c2ccc(Br)cc2c2nc3ccccc3nc21)NCc1ccccc1	> 100	–	39	> 100	> 100	> 100	> 100	> 100	–	–	–	–
CCCC(=O)OCC1OC(n2cc(F)c(=O)[nH]c2=O)CC1OC(=O)CCC (stereo not drawn)	5.02	> 10	> 10	> 10	> 10	> 10	> 10	> 7.85	–	–	–	–
COc1cc(/C=C/C(=O)CC(=O)/C=C/c2cc(C)c(O)c(OC)c2)cc(C)c1O	> 100	> 100	> 100	> 100	> 100	> 100	–	> 100	–	–	–	–
COc1c(C(=O)/C(=N/Nc2ccc(C(=O)O)cc2)C(C)=O)c(O)cc2occc12	> 100	> 100	> 100	> 100	> 100	> 100	> 100	> 100	–	–	–	–
CCC(C)C(Nc1c2ccccc2nc2c(C(=O)NCCN(C)C)cccc12)C(=O)O (stereo not drawn)	79.3	–	> 100	> 100	> 100	81.5	86.4	–	–	–	–	–
CC(C#N)(NO)C(C)(C#N)NO (stereo not drawn)	> 100	> 100	> 100	> 100	> 100	> 100	> 100	> 100	–	–	–	–
Cc1ccc([N+](=O)[O-])cc1S(=O)(=O)Nc1ccc(C2=NN(S(=O)(=O)c3cc([N+](=O)[O-])ccc3C)C(c3cccs3)C2)cc1 (stereo not drawn)	59.9	> 100	> 100	52.6	25.3	> 100	> 100	> 100	–	–	–	–
Cc1cccc2c(=O)c3cccc([C@H](C)C(=O)O)c3oc12	> 100	> 100	> 100	> 100	> 100	> 100	> 100	> 100	–	–	–	–
COc1ccc(N2C(=O)C3ON(Cc4ccc(CC(N)=O)cc4)C(c4c5ccccc5c(C)c5ccccc45)C3C2=O)cc1 (stereo not drawn)	> 100	51.2	> 100	> 100	–	37.3	> 100	> 100	–	–	–	–
CCN(CC)Cc1cc(N=Nc2c(O)ccc3c(N=Nc4ccc(O)c(CN(CC)CC)c4)c(O)ccc23)ccc1O	12.7	–	3.75	> 20.7	3.6	6.96	18	8.25	–	–	–	–

Compound	TGI [1] [µM]	TGI [2] [µM]	TGI [3] [µM]	TGI [4] [µM]	TGI [5] [µM]	TGI [6] [µM]	TGI [7] [µM]	TGI [8] [µM]	GI50 [1] [µM]	GI50 [4] [µM]	GI50 [5] [µM]	GI50 [8] [µM]
O=c1cc(NNc2ccccc2)[nH]c(=O)[nH]1	> 100	64.6	29.6	30.9	31.8	–	35.1	–	–	–	–	–
Cc1cc2ncn(CC(=O)O)c2cc1C	> 100	> 100	> 100	> 100	> 100	> 100	–	> 100	–	–	–	–
CCOC(CBr)OC1C(=O)OCC1(C)C (stereo not drawn)	> 100	> 100	> 100	–	> 100	> 100	> 100	> 100	–	–	–	–
CC(O)C(CO)NC(=O)C1CSSCC(NC(=O)C(N)Cc2ccccc2)C(=O)NC(Cc2ccccc2)C(=O)NC(Cc2c[nH]c3ccccc23)C(=O)NC(CCCCN)C(=O)NC(C(C)O)C(=O)N1 (stereo not drawn)	> 100	> 100	> 100	> 100	> 100	> 100	> 100	> 100	–	–	–	–
O=C(CCCc1cccc2[nH]c3c(c12)CN(Cc1ccccc1)CC3)c1ccc(F)cc1	> 52.3	10.3	> 100	> 100	31.4	> 100	> 100	> 100	–	–	–	–
COc1cc2ncnc(NS(=O)(=O)c3cc4ccccc4s3)c2cc1OC	> 100	–	> 100	> 100	> 100	> 100	> 100	> 100	–	–	–	–
CCN(CC)CCC(=O)/C=C/c1ccc(Cl)c(Cl)c1	> 10	1.76	> 10	> 10	> 10	–	> 10	–	–	–	–	–
CC(=O)OCC1OC(n2c(C)c(C)cc(C#N)c2=S)C(OC(C)=O)C(OC(C)=O)C1OC(C)=O (stereo not drawn)	> 100	> 100	> 100	> 100	–	> 100	> 100	> 100	–	–	–	–
CCCCn1c(=O)[nH]c2c(N)ncnc21	> 100	> 100	> 100	> 100	> 100	> 100	> 100	–	–	–	–	–
O=C1/C(=C/c2cccc([N+](=O)[O-])c2)N=C(c2ccccc2)N1c1nc2ccc(Sc3ccccc3)cc2[nH]1	> 100	–	> 100	–	96.8	> 100	33.3	> 100	–	–	–	–
Nc1cc(C2CCCc3c2[nH]c2ccccc32)ccc1O (stereo not drawn)	> 100	50.3	> 100	> 100	> 100	> 100	–	84.5	–	–	–	–
O=[N+]([O-])c1ccc2c(c1)nc1n2C(c2c(F)cccc2F)SC1 (stereo not drawn)	> 100	> 100	> 100	> 100	> 100	> 100	> 100	> 100	–	–	–	–
COc1cc2c(cc1OC)C(CCN)=NCC2	34.3	2.06	18.4	35.2	27.4	4.2	30.5	25.2	–	–	–	–
COc1ccc(C2=C(OC(C)=O)c3cccn3-c3ccc(Cl)cc3S2)cc1	> 10	3.02	> 10	–	> 10	–	4.51	> 10	–	–	–	–
Cc1[nH]c(=O)nc(N/N=C/c2c3ccccc3c(Cl)c3ccccc23)c1C(=O)Nc1ccc(Cl)cc1	> 100	44.7	> 100	> 100	–	> 100	> 100	> 100	–	–	–	–
CC1=C(C)C(=O)OC(C(C)(O)C2(O)CC3OC34C3CC(O)C56OC5C=CC(=O)C6(C)C3CCC42C)C1 (stereo not drawn)	8.64	–	–	6.23	> 29	2.62	15.5	14.4	–	–	–	–
COC(=O)[C@@]12CSC[C@]1(C(=O)OC)N[C@@H](c1ccccc1O)C2	> 100	> 100	> 100	> 100	> 100	> 100	> 100	> 100	–	–	–	–
Cc1[nH]n(-c2nc(-c3ccccc3)cc(=O)[nH]2)c(=O)c1CCO	> 100	> 100	> 100	> 100	> 100	> 100	> 100	> 100	–	–	–	–
O=C(Nc1ccccc1C(=O)NCc1ccccc1)/C(=C/c1ccccc1O)NC(=O)c1ccccc1	> 100	> 100	> 100	> 100	> 100	> 100	–	> 100	–	–	–	–
NCCCn1c(Cl)nc2ccccc21	> 100	> 100	> 100	> 100	> 100	> 100	> 100	> 100	–	–	–	–
CC(C)CC1c2[nH]c3ccccc3c2C[C@H]2C(=O)NC(Cc3c[nH]c4ccccc34)C(=O)N12 (stereo partly drawn)	40	40.9	40.2	30.5	34.8	42.9	–	66.1	–	–	–	–
COc1cc(C[C@@]2(C)[C@@H]3CCC[C@H](CO)[C@@]3(C)CC[C@@H]2C)c(Cl)c(OC)c1	37.2	47.3	29.1	28.8	30.2	31.5	30.1	31.1	–	–	–	–
O=C(NC(=S)Nc1ccc(Br)cc1)c1ccc2c(c1)Sc1ccccc1O2	> 100	> 100	> 100	> 100	> 100	> 100	> 100	–	–	–	–	–
O=C(COc1cc(=O)oc2ccccc12)c1ccccc1	65.2	> 100	> 100	39.9	–	–	> 100	32.5	–	–	–	–
CC1=C[P+](c2ccccc2)(c2ccccc2)c2ccccc2O1	24.1	8.76	> 100	9.4	2.89	> 100	–	> 100	–	–	–	–
Cc1cn(S(=O)(=O)c2ccccc2)c2c(OCc3ccccc3)cc([N+](=O)[O-])cc12	> 100	> 100	> 100	> 100	> 100	> 100	–	> 100	–	–	–	–
